{
  "source": "patent US20140073691A1",
  "about": "“Methods and composition for Treating Thyroid Hormone Related Disorders” (Zafgen, Inc., priority 2010, published 2014)",
  "tested_on": "plasma thyroid stimulating hormone (TSH)",
  "test": "Administration of MetAP-2 inhibitor to obese subjects: plasma TSH and circulating thyroid hormones",
  "assay_type": "in vivo, human (obese subjects)",
  "procedure": "FIG. 1 depicts the results of administration of a MetAP2 inhibitor to obese patients and indicates the reduction in plasma thyroid stimulating hormone, without reductions in circulating thyroid hormone (free T3 and T4) concentrations.\n8 obese subjects who were not taking any thyroid medication were treated with O-(4-dimethylaminoethoxycinnamoyl)fumagillol at a dose of 0.9 mg per square meter of body surface area (approximately 1.8 mg per dose) for 26 days. […] (FIG. 1). This is indicative of improved thyroid hormone sensitivity and a reduction in thyroid hormone resistance.",
  "data": [
    {"smiles": "CO[C@@H]1[C@H](OC(=O)C=Cc2ccc(OCCN(C)C)cc2)CC[C@]2(CO2)[C@H]1[C@@]1(C)O[C@@H]1CC=C(C)C", "note": "[O-(4-dimethylaminoethoxycinnamoyl)fumagillol]", "values": [
      {"measurement": "plasma thyroid stimulating hormone (TSH)", "setting": "8 obese subjects not taking thyroid medication, 0.9 mg per square meter of body surface area (approximately 1.8 mg per dose) for 26 days", "value": "significant reduction"},
      {"measurement": "circulating thyroid hormone T4", "setting": "8 obese subjects, 0.9 mg per square meter of body surface area for 26 days, T4 (FIG. 1)", "value": "without a reduction"},
      {"measurement": "circulating thyroid hormone T3", "setting": "8 obese subjects, 0.9 mg per square meter of body surface area for 26 days, free T3 (FIG. 1)", "value": "without a reduction"}
    ]}
  ]
}
